Experimental data: patent US6696475B2, “Substituted phenyl derivatives, their preparation and use” (NeuroSearch A/S, priority 1997, dated 2004)
Values belong to the compound of their own block, whether it stands above or below them.

Legend:
[1] = biological target: erythrocyte chloride channels; experiment: Cl- conductance (GCl) from conductive netfluxes of Cl- and membrane potentials in suspensions of normal erythrocytes; type: cell-based, Human; details: suspension of normal erythrocytes; for Kd: read-out: KD-value for block of GCl
Description: (§1) The compounds of the present invention are potent blockers of chloride channels in normal as well as sickle cell erythrocytes.
(§2) All dose-response experiments were therefore performed by concomitant measurements of conductive neffluxes of Cl^− (JCl) and membrane potentials (Vm) in suspensions of erythrocytes (Bennekou, P. and Christophersen, P. (1986), Flux ratio of Valinomycin—Mediated K^+ Fluxes across the Human Red Cell Membrane in the presence of the Protronophore CCCP. J. Membrane Biol. 93, 221-227. ). The membrane Cl^− conductances (GCl) were calculated by the following equation (Hodgkin, A. L. and Huxley, A. F. (1952) The components of membrane conductance in the giant axon of Loligo. J. Physiol. Lond. 116, 449-472): [formula]
(§3) where F is the Faraday constant, ECl is the Nernst potential for the Cl-ion.

[2] = system: erythrocyte chloride channels (homozygoteous sickle cell erythrocytes); experiment: Cl- conductance (GCl) in sickle cell erythrocytes; type: cell-based, Human; details: oxygenated as well as deoxygenated homozygoteous sickle cell erythrocytes
Description: as §1, §2, §3

erythrocytes = experiment: Valinomycin induced cell volume loss, relative volume of packed cells; type: cell-based; details: valinomycin for 5 min; volume loss 26% without compound
Method: Inducing a massive water and salt loss (KCl) by addition the K^+-ionophore valinomycin to the suspension for 5 min reduced the cell volume by 26%.

Normal erythrocytes = experiment: K+-flux from normal erythrocytes, extracellular K+-concentration vs time; type: cell-based; details: 10 μM
Description: (§4) Deoxygenation induced permeability increases of sickle cells were estimated by measuring the extracellular K^+-concentration vs time. […] The K^+ flux from oxygenated sickle erythrocytes was 2-3 times higher than from normal erythrocytes and these fluxes was accelerated 4-8 times upon deoxygenation.

sickle erythrocytes = experiment: Deoxygenation induced permeability increase of sickle cells, extracellular K+-concentration vs time; type: cell-based; details: 10 μM
Description: as §4

mice = details: mouse, in vivo
Method: (§5) 3-Trifluoromethylphenyl-2-carboxyphenyl urea is non-toxic to mice and rats at concentrations up to 250 mg/kg i.p. and i.v.

rats = details: rat, in vivo
Method: as §5

bone resorbtion = details: in vitro; cited from earlier work
bone degration = details: growing yound rats; cited from earlier work
proton pump = details: cited from earlier work

Kd [1]: 1900 nM
SMILES: O=C(Nc1cccc(C(F)(F)F)c1)Nc1ccc(Br)cc1-c1nnn[nH]1 [3-Trifluoromethylphenyl-4-bromo-2-(5-tetrazolyl)phenyl Urea]

SMILES: O=C(Nc1cccc(C(F)(F)F)c1)Nc1ccccc1C(=O)O [N-3-Trifluoromethylphenyl-N′-2-carboxyphenyl Urea]
block of GCl [1]: more than 95%
Kd [1]: 1300 nM
block of GCl compared with normal erythrocytes [2]: equipotently blocked
cell volume loss in presence of compound (erythrocytes): 7%
effect on K+-fluxes of normal erythrocytes (Normal erythrocytes): insensitive
basal K+-flux from sickle erythrocytes (sickle erythrocytes): normalised
deoxygenation induced K+ flux component (sickle erythrocytes; deoxygenated sickle erythrocytes): nearly abolished
non-toxic dose (mice): up to 250 mg/kg
non-toxic dose (rats): up to 250 mg/kg

Kd [1]: 300 nM
melting point: 258 to 260 °C
SMILES: CN(C)S(=O)(=O)c1ccc(-c2ccc(NC(=O)Nc3cccc(C(F)(F)F)c3)c(-c3nnn[nH]3)c2)cc1 [N-(3-Trifluoromethylphenyl)-N′-(4′-(N,N-dimethylsulfamoyl)-2-(1-H-tetrazol-5-yl)-4-biphenyl) urea]

SMILES: CC(=O)Nc1nnc(S(N)(=O)=O)s1 [acetacolamide]
effect on bone resorbtion, pit formation (bone resorbtion): effective

SMILES: CO/C1=C\C(C)=C\[C@@H](C)[C@@H](O)[C@@H](C)C/C(C)=C/C=C/[C@H](OC)[C@@H]([C@@H](C)[C@@H](O)[C@H](C)[C@@]2(O)C[C@@H](O)[C@H](C)[C@@H](C(C)C)O2)OC1=O [bafilomycin A1]
effect on bone resorbtion, pit formation (bone resorbtion): completely eliminates
effect on bone degration (bone degration): depresses
block of the proton pump (proton pump): extremely potent, reversible inhibitor

SMILES: COc1ccc2[nH]c([S+]([O-])Cc3ncc(C)c(OC)c3C)nc2c1 (centres unmarked) [omeprazol]
block of the proton pump (proton pump): ineffective
